Compound	melting point
CCn1c(C(F)(F)F)cc(=O)n(-c2cc(C(=O)OC3CCCC3)c(Cl)cc2F)c1=O	90 to 91 °C
Cc1nc(-c2nccs2)c2nc(-c3ccccc3)cc-2[nH]1	248 to 250 °C
N#CSc1ccc(SCc2ncon2)cc1	78 °C
O=C(O)C(O)C(Sc1ccc(O)cc1)c1ccccc1CCCCCCCCc1ccccc1 (stereo not given)	155 to 157 °C
ClCc1conc1-c1ccc(-c2ccccc2)cc1	102 to 103 °C
CCOC(=O)C1(c2ccccc2)CCN(C2CCC(C#N)(c3ccccn3)CC2)CC1 (stereo not given)	157 °C
COc1cccc(Sc2ccc(O)cc2)n1	88.5 to 94.5 °C
CCC(=O)NCC1CC1c1cccc2nc(C)cn12 (stereo not given)	88 to 90 °C
CCCCOC(=O)NS(=O)(=O)CCc1c(C)nn(C)c1-n1ccc2cc(C(F)(F)F)cnc21	122 to 123 °C
Cc1nc(-c2ccc([N+](=O)[O-])cc2)c[nH]1	216 to 219 °C
COc1ccc2cc(CC[Si](C)(C)C)c(=O)oc2c1	130 to 132 °C
CCN(CC)CCSc1nc2ccccc2c(=O)n1-c1ccccc1	84.8 to 86.8 °C
CCOC(=O)/C=C/c1ccc(OC(C)=O)c(Cl)c1	59 to 61 °C
COc1cc(C)nc2c(OCc3c(Cl)ccc(NC(=O)CN4C(=O)c5ccccc5C4=O)c3Cl)cccc12	184 to 185 °C
COC(=O)c1ccccc1NS(=O)(=O)c1nc2nc(C)cc(C)n2n1	170 °C
CCCCc1nc(NC(=O)Nc2ccccc2)[nH]c(=O)c1Cc1ccc(-c2ccccc2C(=O)OC)cc1	217 to 219 °C
CC(=O)SCC(C(=O)Nc1cccc(O)c1)C(F)(F)F (stereo not given)	148 to 149 °C
CC1=CC(c2ccc(F)c(Cl)c2)C2=C(CCCC2=O)N1 (stereo not given)	164 to 167 °C
N=C(NC(=O)c1ccccc1)Oc1ccccc1	125 °C
O=C(C=Cc1cccc2ccccc12)C=Cc1cccc2ccccc12	128 °C
Cn1ccc(=O)c(OCc2ccccc2)c1C(O)c1ccc2c(c1)OCO2 (stereo not given)	230 to 232 °C
CCc1cc2c(O)c(C(=O)OCC(C)C)cnc2s1	156 to 158 °C
CCCc1nc2ccc(N(C)C)nn2c1S(N)(=O)=O	215 to 217 °C
CC1(C)Oc2ccc(C#N)cc2[C@@H](NC(=NC#N)N2CCN(Cc3ccccc3)CC2)[C@@H]1O (relative stereo)	205 to 207 °C
O=c1[nH]c2cc(Br)c3c(c2[nH]c1=O)CN(CCc1ccccc1)CC3	290 to 295 °C

Compound	melting point
CC(C)(N)c1ccc(-c2nc(Nc3ccc(CCn4ccnc4)cc3)ncc2C#N)cc1	184 °C
O=C(O)c1cc2nc(-c3ccccc3)nn2cc1F	> 250 °C
O=C1Cc2cccc(C(=O)c3ccc(F)cc3)c2N1	185 to 187 °C
CC1(C)Oc2ccc(C#N)cc2[C@@H](NNC(=O)c2ccccc2)[C@@H]1O (relative stereo)	197 to 199 °C
O=C1CCC(c2ccc(-n3cnc(CO)c3)cc2)=NN1	214 to 215 °C
N#Cc1cccc(CCc2n[nH]c3c2c(=O)n(-c2ccccc2)c2ncccc32)c1	220 to 224 °C
CCOC(=O)c1ccc(N)c(CNC(C)(C)C)c1	77 to 79 °C
O=c1oc(-c2cccc(-c3ccccc3)c2)cc(O)c1Sc1ccccc1CC1CC1	88 °C
CCCOc1ccc(CCl)cc1-c1nc2c(CCC)nn(C)c2c(=O)[nH]1	102 to 104 °C
COc1ccccc1Cc1n[nH]c2c1c(=O)n(-c1cccc(C(F)(F)F)c1)c1ncccc21	229 to 231 °C
COC(=O)/C(=C/c1cccc(OC)c1)c1cc(OC)c(OC)c(OC)c1	87 to 88 °C
Cc1cc(Cl)n(-c2ccc(Cl)cc2F)n1	95 to 97 °C
NC(=CC(=O)N1CCn2c(nnc2C(F)(F)F)C1)Cc1cc(F)c(F)cc1F	271 °C
CCCCCCCCCCCCc1cc(Cc2ccccc2)on1	41 to 43 °C
CNC(=O)c1cc(-c2ccc(OC)cc2)nn(CC2CCCC2)c1=O	107 to 108 °C
COc1ccc(-c2ccc3c(c2)CCCc2c-3nc3ccc(F)cc3c2C(=O)O)cc1	> 300 °C
c1ccc(-c2ccc(Nc3nnc(Cc4ccncc4)c4ccccc34)cc2)cc1	189 to 191 °C
CCN1C(=O)C(C)(C)C(=O)N(C)c2cc(CN(C)Cc3ccccc3CN3C(=O)CCc4ccccc43)ccc21	125 to 127 °C
CCNS(=O)(=O)c1cccc(OCc2nc3ccccc3n2C)c1	169 to 173 °C
CC(C)(C)OC(=O)CN1C(=O)[C@@H](NC(=O)OC(C)(C)C)CCc2ccccc21	145 to 147 °C
Cc1ccccc1C(=O)c1ccc(CC#N)n1C	90 to 92.5 °C
O=C(NCc1ccc([N+](=O)[O-])cn1)C(c1ccccc1)c1ccccc1	160 to 164 °C
COc1cc2c(cc1-c1cccnc1)-c1c(-c3cccnc3)c3c(n1CC2)C(=O)N(C(C)(C)C)CCC3	310 to 312 °C
Cc1ccc(-c2ccc(C(CCC(=O)O)=NO)cc2)cc1	176 to 178 °C
CCOC(C#CC(=O)c1cc(OC)c(OC)c(OC)c1)OCC	52 to 54 °C
